The source of these data is patent publication US12570704B2, “Functionally modified maytansinoids and compositions and methods of use thereof” (University of Georgia Research Foundation, Inc., priority 2019, dated 2026).

Each structure is given as a SMILES string. Non-standard residues stand in square brackets, D forms with d. Residues, ends and D or L forms follow the SMILES beside them. ξ: configuration not given here. ξGly(4-Pip(1-amidino)) = N=C(N)N1CCC(C(N)C(=O)O)CC1; ξGly(piperidin-4-yl) = NC(C(=O)O)C1CCNCC1; ξTle = CC(C)(C)C(N)C(=O)O; ξP = O=C(O)C1CCCN1; ξC = NC(CS)C(=O)O

In one data set the target is NTSR1 (Homo sapiens, UniProt P30989). The conditions noted are these: compared to wildtype NTS; cited from earlier work.
Sequence of NTSR1 (P30989 whole entry): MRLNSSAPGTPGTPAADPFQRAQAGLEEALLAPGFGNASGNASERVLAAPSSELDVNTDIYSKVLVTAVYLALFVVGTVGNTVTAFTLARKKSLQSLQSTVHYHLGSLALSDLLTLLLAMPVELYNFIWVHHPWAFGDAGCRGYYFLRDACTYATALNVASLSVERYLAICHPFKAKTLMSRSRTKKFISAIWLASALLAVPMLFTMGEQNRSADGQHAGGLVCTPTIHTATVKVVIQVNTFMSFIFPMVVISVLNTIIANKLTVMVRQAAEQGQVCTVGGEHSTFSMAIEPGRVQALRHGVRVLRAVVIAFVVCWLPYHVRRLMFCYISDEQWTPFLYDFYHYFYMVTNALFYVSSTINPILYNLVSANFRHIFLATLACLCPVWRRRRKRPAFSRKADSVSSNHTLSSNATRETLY
For data set [1] the following is noted: compared to wildtype NTS; cited from earlier work.
Data set [2] has as its system H1299 cells. The data set is described as follows: MTT cell viability assay, 72 h, without RT. It is filed as cell-based, human. On the procedure:
The viability of the H1299 cells after different treatments was measured by (4,5-dimethythiazon-2-yl)-2,5-diphenyl tetrazolium bromide (MTT) assay using an Infinite M200 microplate reader (BioTek's Synergy™ Mx, USA). Around 3×10^3 cells per well were seeded into a 96-well plate and cultured overnight until the cells fully adhered to the bottom of the plate. The cells were treated with different treatment groups, including free drugs (DM1 and DM1-NO), and drug loaded nanoparticles (DM1-NPs and DM1-NO-NPs) for 72 h. […] After that MTT reagent (in 20 μL PBS, 5 mg/mL) was added to each well. The cells were further incubated for 4 h at 37° C. The medium in each well was then removed and replaced by 100 μL DMSO. The plate was gently shake for 5 min (instrument setup) to dissolve the formazan crystals, and the absorbance at 570 nm was recorded by a microplate reader. Each experiment condition was run three times and the data were shown as the mean value plus a standard deviation (±SD).
(In general: Formazan colour is commonly taken as a measure of viable cells.)

Data set [3] concerns H1299 cells. As to the kind of experiment: MTT cell viability assay, 72 h, in the presence of RT. The conditions noted are these: with RT. It is filed as cell-based, human. The procedure:
FIGS. 7A-7E are plots showing the results of a cell cycle analysis, based on PI staining and assessed by flow cytometry. H1299 cells were incubated with PBS (7A), DM1 (7B), DM1-NO (7C), DM1-NPs (7D), or DM1-NO-NPs (20 nM, DM1 concentration) (7E) before analysis. […] FIG. 7G is a bar graphs showing Percentage of tubulin inhibition. Tubulin polymer was collected by centrifugation (35000×g for 1 h at 30° C.) and the amount of tubulin protein sediment was quantified by measuring protein concentration. ***, P<0.001. FIG. 7H is a line graph showing cell viability, tested with H1299 cells using 72-h MTT in the presence of RT. DM1, DM1-NO, and DM1-NO-NPs were studied.
The viability of the H1299 cells after different treatments was measured by (4,5-dimethythiazon-2-yl)-2,5-diphenyl tetrazolium bromide (MTT) assay using an Infinite M200 microplate reader (BioTek's Synergy™ Mx, USA). Around 3×10^3 cells per well were seeded into a 96-well plate and cultured overnight until the cells fully adhered to the bottom of the plate. The cells were treated with different treatment groups, including free drugs (DM1 and DM1-NO), and drug loaded nanoparticles (DM1-NPs and DM1-NO-NPs) for 72 h. […] The plate was gently shake for 5 min (instrument setup) to dissolve the formazan crystals, and the absorbance at 570 nm was recorded by a microplate reader. […]

Data set [4] has as its system H1299 cells. As to the kind of experiment: Clonogenic assay with X-ray irradiation, linear-quadratic model. It is filed as cell-based, human. Particulars: 20 nM, 12 h, X-rays 0-10 Gy. On the procedure: Around 3×10^5 of H1299 cells were plated in a series of 25 mm petri dishes in 5 mL of complete RMPI-1640 medium, and the cells were incubated for 24 h at 37° C. Once the cells were completely adhered to the bottom of the plate, the media was replaced with fresh RPMI-1640 containing DM1 or DM1-NO with a final concentration of 20 nM. After another 12 h of incubation, the cell cultures were irradiated by X-rays (320 kV) of different doses Immediately following the X-ray irradiation, the cell monolayers were trypsinized using 0.05% Trypsin/EDTA (Gibco, Life Technologies, USA). Single cells were collected and plated onto a 25 mm petri dish in 5 mL complete media (FIG. 1K). Each dish was then incubated for 21 days to allow colonies to form. After that, the media was removed and 0.5% crystal violet in 70% methanol was used to fixed and stain the existing colonies. The plates were sufficiently and carefully rinsed, and were dried at room temperature. Once dried, the colonies were counted manually under a microscope. When observed under the microscope, colonies of […] were said to be surviving colonies. The survival rate of these colonies was normalized to the plating efficiency of the untreated control cells. The mean and standard deviation of surviving colonies in each treatment group was calculated.
The potential of DM1-NO as a radiosensitizer was assessed by clonogenic assays. Briefly, DM1 or DM1-NO was incubated with H1299 cells, the cells were irradiated with X-rays (0-10 Gy), and the resulting cells were seeded onto a petri dish (FIG. 1K). Colonies consisting more than 50 cells after 3 weeks were counted, and the data fit to a linear-quadratic model (Table 3).

In data set [5] the test system is H1299 cells. As to the kind of experiment: Cell cycle arrest, PI staining and flow cytometry. It is filed as cell-based, human. The conditions noted are these: 20 nM, 24 h; PBS control 17.5%. The procedure:
H1299 cells were seeded onto 6-well plates at a density of 2×10^5 cells per well and cultured overnight. The cells were then incubated with 20 nM of free drugs (DM1 and DM1-NO) or drug loaded nanoparticles (DM1-NPs and DM1-NO-NPs) for 24 h, and were then harvested and washed with ice-cold phosphate-buffered saline (PBS) and fixed with cold 70% (vol/vol) ethanol overnight at 4° C. The resulting cells were resuspended in PBS (1×) buffer containing a final concentration of 20 μg/mL RNase A and 20 μg/mL propidium iodide (eBioscience, Invitrogen, USA) for 15 min. The cell cycle profiles were determined using flow cytometry (HyperCyAn, Beckman USA) and analyzed using CellQuest software.

The nature of data set [6]: In vivo toxicity study (hematology, blood biochemistry, liver tissue). Also noted: species or system balb/c mice. Particulars: 260.8 nmol/kg i.v., Day 10. The procedure:
Six-week old female albino BALB/c mice were purchased from Charles River Laboratories, USA. The animals were divided into control and experimental groups (n=3) and marked to permit individual identification. A similar dose (260.8 nmol/kg) of DM1-NO-NPs as used in therapeutic study was administered intravenously and the mice were examined for 10 days to observations for abnormal sign of toxicity such as change in behavioral, dizziness, respiratory distress or mortality were conducted until the end of the study. To further evaluate the hepatic function, alanine aminotransferase (ALT) and aspartate aminotransferase (AST) activities were measured and blood chemistry analysis was performed by using 20 μL blood serum sample form • each treated animal to assess the following: white blood cells (WBC), red blood cells (RBC), and platelets (PLT), plateletcrit, (PCT, mean platelet volume or platelet distribution width) and also corresponding sets of electrolytes (sodium, potassium, chloride, bicarbonate, sugar (glucose) calcium, inorganic phosphate, and magnesium, lipids (cholesterol), albumin, and total protein levels were also analyzed. Histological Analysis: […]

For `CC(C)C[C@H](NC(=O)C(NC(=O)[C@H](Cc1ccc(O)cc1)NC(=O)C1CCCN1C(=O)[C@H](CCCNC(=N)N)NC(=O)C(NC(=O)C1CCCN1C(=O)C(NC(=O)C(N)CS)C1CCNCC1)C1CCN(C(=N)N)CC1)C(C)(C)C)C(=O)O` (stereo partly drawn) [NTSmut] (H-[ξC][ξGly(piperidin-4-yl)][ξP][ξGly(4-Pip(1-amidino))]R[ξP]Y[ξTle]L-OH), the “avidity to NTSR1” value at NTSR1 is listed as “comparable, nanomolar avidity”. In data set [1], the biological stability entry was “much greater biological stability”.

Broadly, the IC50 is the midpoint of a concentration-inhibition curve. Regarding `COc1cc2cc(c1Cl)N(C)C(=O)C[C@H](OC(=O)[C@H](C)N(C)C(=O)CCS)[C@]1(C)O[C@H]1[C@H](C)[C@@H]1C[C@@](O)(NC(=O)O1)[C@H](OC)/C=C/C=C(\C)C2` [DM1, Mertansine, reference compound], in the data set on H1299 cells [2], the IC50 was found to be 19.8 nM. Besides, the IC50 with H1299 cells [3] was 17.4 nM. Besides, in the data set with H1299 cells [4], the “D10 (radiation dose at 10% fractional survival)” value is 4.89 Gy, the “α (linear quadratic model best fit value)” value is 0.0729 and the “β (linear quadratic model best fit value)” value worked out at 0.0033. In addition, the “portion of cells in the G2/M phase” value in the data set on H1299 cells [5] turned out to be 85.3%. In addition, the “complete blood count: WBC, RBC, PLT, PCT levels” value in data set [6] is recorded as “in the normal range”.
